Experimental data from the kinase profiling compilation of Christmann-Franck et al. (2016).

Tests used:
Test in all cases: radiometric filter-binding kinase assay
PAK7 (human) = PAK7 (human) (UniProt Q9P286)
DYRK1A (human) = DYRK1A (human) (UniProt Q13627)
MAPK15 (human) = MAPK15 (human) (UniProt Q8TD08)
CaMK1 (human) = CaMK1 (human) (UniProt Q14012)
EPHA4 (human) = EPHA4 (human) (UniProt P54764)
IGF1R (human) = IGF1R (human) (UniProt P08069)
EPHB2 (human) = EPHB2 (human) (UniProt P29323)
EPHB3 (human) = EPHB3 (human) (UniProt P54753)
MAPK14 (human) = MAPK14 (human) (UniProt Q16539)
DYRK2 (human) = DYRK2 (human) (UniProt Q92630)
MELK (human) = MELK (human) (UniProt Q14680)
PIM1 (human) = PIM1 (human) (UniProt P11309)
MAPK8 (human) = MAPK8 (human) (UniProt P45983)
MINK1 (human) = MINK1 (human) (UniProt Q8N4C8)
RIPK2 (human) = RIPK2 (human) (UniProt O43353)
PRKACA (human) = PRKACA (human) (UniProt P17612)
IKBKB (human) = IKBKB (human) (UniProt O14920)
CSK (human) = CSK (human) (UniProt P41240)
MAPKAPK5 (human) = MAPKAPK5 (human) (UniProt Q8IW41)
CSNK1D (human) = CSNK1D (human) (UniProt P48730)
MAP2K2 (human) = MAP2K2 (human) (UniProt P36507)
MAP3K11 (human) = MAP3K11 (human) (UniProt Q16584)
MKNK2 (human) = MKNK2 (human) (UniProt Q9HBH9)
HIPK2 (human) = HIPK2 (human) (UniProt Q9H2X6)
BRSK1 (human) = BRSK1 (human) (UniProt Q8TDC3)
CAMKK2 (human) = CAMKK2 (human) (UniProt Q96RR4)
MAPKAPK2 (human) = MAPKAPK2 (human) (UniProt P49137)
YES1 (human) = YES1 (human) (UniProt P07947)
AURKB (human) = AURKB (human) (UniProt Q96GD4)
PAK4 (human) = PAK4 (human) (UniProt O96013)
BTK (human) = BTK (human) (UniProt Q06187)
MAPK9 (human) = MAPK9 (human) (UniProt P45984)
IKBKE (human) = IKBKE (human) (UniProt Q14164)
MAPK12 (human) = MAPK12 (human) (UniProt P53778)
MAPK12 (human), sequence (P53778 whole entry, looked up): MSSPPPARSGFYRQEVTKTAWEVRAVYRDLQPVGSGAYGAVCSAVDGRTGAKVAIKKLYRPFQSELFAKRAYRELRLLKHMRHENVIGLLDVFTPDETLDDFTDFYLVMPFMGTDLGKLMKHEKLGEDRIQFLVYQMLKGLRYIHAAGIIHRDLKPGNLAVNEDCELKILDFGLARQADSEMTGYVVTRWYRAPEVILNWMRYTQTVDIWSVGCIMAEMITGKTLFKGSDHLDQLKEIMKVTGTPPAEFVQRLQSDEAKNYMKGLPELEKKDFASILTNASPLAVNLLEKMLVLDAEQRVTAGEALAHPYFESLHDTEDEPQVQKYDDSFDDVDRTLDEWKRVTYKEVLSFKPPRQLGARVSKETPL

PAK4 (human), sequence (O96013 whole entry, looked up): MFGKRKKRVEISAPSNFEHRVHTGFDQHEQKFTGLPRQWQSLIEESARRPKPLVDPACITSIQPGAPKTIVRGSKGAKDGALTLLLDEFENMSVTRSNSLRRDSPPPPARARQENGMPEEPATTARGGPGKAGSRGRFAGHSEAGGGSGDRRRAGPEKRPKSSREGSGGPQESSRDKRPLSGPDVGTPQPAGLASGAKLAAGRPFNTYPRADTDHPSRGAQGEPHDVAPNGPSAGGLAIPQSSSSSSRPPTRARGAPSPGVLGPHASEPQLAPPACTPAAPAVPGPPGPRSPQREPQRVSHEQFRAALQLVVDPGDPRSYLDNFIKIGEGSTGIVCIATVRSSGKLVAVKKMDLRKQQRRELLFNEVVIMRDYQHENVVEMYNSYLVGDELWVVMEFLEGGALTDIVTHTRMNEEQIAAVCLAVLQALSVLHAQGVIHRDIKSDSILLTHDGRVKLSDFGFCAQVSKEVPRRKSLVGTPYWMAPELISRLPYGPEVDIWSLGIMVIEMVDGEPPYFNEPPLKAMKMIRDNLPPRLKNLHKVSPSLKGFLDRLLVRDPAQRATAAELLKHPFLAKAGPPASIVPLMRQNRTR
DYRK2 (human), sequence (Q92630 whole entry, looked up): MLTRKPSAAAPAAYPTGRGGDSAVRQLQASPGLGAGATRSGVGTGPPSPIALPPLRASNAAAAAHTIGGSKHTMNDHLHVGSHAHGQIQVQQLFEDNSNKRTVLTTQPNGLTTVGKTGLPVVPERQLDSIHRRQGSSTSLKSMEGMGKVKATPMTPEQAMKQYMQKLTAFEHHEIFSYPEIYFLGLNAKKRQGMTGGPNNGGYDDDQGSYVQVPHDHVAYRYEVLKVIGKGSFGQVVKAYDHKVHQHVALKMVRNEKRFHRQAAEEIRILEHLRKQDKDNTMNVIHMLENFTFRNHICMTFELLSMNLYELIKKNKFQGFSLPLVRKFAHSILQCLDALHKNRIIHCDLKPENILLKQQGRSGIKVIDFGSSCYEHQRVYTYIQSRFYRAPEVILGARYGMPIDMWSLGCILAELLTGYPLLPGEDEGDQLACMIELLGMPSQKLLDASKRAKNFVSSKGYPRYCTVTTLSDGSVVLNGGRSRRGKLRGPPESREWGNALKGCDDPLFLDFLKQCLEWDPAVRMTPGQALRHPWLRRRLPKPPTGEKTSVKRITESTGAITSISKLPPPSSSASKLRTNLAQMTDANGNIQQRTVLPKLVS
IGF1R (human), sequence (P08069 whole entry, looked up): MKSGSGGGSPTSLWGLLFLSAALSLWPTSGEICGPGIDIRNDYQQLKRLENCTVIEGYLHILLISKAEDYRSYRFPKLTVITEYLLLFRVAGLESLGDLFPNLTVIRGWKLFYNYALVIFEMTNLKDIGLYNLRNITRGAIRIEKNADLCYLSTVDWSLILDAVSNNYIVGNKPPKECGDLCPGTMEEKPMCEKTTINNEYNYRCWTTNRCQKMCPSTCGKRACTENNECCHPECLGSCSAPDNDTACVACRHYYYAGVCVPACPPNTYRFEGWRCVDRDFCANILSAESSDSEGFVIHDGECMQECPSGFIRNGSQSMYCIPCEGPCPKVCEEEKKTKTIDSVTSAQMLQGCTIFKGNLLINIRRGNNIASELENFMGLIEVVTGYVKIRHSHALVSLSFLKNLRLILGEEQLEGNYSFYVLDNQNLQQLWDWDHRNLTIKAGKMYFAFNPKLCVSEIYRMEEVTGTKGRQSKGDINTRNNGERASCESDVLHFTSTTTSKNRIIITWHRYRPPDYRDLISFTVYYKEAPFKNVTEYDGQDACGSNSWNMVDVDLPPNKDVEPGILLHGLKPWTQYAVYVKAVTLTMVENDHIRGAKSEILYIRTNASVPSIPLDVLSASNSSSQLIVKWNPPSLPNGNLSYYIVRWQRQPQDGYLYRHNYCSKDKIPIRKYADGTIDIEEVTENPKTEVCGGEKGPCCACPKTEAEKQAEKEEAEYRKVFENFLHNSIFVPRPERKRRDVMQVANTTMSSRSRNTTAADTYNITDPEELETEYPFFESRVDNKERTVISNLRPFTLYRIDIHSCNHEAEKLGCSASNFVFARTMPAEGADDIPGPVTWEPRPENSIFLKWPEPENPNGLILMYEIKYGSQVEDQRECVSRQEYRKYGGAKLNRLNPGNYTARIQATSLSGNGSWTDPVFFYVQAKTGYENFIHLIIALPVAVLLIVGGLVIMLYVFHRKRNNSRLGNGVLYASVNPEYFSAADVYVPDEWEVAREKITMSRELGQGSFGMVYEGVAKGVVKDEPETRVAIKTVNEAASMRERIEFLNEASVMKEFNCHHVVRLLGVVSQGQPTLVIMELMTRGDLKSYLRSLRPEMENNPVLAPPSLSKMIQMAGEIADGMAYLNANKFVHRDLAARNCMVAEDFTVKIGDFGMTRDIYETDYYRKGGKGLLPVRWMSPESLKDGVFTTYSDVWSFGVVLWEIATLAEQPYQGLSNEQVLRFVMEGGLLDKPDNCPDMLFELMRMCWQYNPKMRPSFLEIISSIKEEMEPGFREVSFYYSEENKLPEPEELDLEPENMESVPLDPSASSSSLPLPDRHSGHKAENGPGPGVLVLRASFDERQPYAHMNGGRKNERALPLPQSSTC
MAP3K11 (human), sequence (Q16584 whole entry, looked up): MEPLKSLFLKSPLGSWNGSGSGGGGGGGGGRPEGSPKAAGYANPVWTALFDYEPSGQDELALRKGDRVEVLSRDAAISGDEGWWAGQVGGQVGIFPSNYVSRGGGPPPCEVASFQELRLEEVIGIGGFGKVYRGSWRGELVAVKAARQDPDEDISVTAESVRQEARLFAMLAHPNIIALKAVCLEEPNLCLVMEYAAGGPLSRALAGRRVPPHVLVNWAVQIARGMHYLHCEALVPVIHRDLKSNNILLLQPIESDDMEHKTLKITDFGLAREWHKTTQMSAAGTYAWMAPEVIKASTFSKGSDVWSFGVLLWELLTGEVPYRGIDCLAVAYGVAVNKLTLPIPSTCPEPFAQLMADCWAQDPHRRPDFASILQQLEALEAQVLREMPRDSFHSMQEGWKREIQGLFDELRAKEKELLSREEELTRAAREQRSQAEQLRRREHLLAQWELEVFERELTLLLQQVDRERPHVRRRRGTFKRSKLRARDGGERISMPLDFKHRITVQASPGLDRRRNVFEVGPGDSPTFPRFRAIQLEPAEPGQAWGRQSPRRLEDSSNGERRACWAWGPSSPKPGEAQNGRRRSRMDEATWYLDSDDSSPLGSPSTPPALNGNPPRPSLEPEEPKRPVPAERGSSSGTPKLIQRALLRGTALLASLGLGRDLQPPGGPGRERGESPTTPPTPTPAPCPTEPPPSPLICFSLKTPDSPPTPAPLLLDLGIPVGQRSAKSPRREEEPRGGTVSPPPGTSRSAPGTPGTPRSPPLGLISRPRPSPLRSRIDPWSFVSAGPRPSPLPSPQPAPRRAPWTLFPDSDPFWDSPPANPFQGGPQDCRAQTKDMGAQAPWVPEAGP
MINK1 (human), sequence (Q8N4C8 whole entry, looked up): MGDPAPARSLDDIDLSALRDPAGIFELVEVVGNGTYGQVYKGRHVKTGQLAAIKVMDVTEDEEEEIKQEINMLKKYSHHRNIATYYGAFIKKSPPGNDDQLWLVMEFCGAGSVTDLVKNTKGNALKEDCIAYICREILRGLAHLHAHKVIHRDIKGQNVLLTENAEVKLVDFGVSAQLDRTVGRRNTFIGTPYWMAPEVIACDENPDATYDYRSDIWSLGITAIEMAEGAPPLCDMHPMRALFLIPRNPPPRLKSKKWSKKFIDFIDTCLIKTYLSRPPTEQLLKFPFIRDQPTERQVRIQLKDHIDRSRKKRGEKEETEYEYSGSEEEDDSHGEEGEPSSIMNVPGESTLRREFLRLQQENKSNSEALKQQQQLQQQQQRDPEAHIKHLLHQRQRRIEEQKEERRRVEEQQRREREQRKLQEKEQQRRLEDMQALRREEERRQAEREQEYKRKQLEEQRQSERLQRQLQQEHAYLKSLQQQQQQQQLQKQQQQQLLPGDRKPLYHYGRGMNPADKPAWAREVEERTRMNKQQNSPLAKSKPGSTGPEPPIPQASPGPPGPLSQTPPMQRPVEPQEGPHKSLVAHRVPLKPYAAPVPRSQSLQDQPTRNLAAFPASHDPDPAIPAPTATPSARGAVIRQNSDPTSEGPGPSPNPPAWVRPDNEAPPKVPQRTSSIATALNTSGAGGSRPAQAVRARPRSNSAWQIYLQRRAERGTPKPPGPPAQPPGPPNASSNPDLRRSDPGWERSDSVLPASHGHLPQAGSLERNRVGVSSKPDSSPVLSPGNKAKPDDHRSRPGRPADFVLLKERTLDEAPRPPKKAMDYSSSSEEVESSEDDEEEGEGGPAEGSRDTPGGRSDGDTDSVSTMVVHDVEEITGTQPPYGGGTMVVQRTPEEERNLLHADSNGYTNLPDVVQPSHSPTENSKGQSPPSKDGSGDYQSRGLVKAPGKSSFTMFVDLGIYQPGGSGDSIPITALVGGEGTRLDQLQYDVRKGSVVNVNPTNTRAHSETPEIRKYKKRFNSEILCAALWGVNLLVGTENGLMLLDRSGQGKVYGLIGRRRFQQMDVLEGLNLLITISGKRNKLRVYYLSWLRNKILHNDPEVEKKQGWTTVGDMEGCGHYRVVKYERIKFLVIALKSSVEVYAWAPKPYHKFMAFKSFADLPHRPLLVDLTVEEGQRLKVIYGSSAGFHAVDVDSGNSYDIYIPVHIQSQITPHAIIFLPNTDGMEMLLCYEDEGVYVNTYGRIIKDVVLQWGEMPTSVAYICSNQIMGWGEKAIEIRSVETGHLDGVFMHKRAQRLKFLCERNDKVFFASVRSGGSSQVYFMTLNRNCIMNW

`Cc1ccc(=O)n(-c2ccccc2)c1` gave a residual activity (PAK7 (human); compound 1.0 µM) of 88%, a residual activity (PAK7 (human); compound 10.0 µM) of 96% and a residual activity (DYRK1A (human); compound 1.0 µM) of 103%. For the same compound, the residual activity (DYRK1A (human); compound 10.0 µM) was 91%, the residual activity (MAPK15 (human); compound 1.0 µM) was 95% and the residual activity (MAPK15 (human); compound 10.0 µM) was 86%. It also gave a residual activity (CaMK1 (human); compound 1.0 µM) of 98%, a residual activity (CaMK1 (human); compound 10.0 µM) of 81% and a residual activity (EPHA4 (human); compound 1.0 µM) of 106%. The residual activity (EPHA4 (human); compound 10.0 µM) was 99%, the residual activity (IGF1R (human); compound 1.0 µM) was 105% and the residual activity (IGF1R (human); compound 10.0 µM) was 102%. The residual activity (EPHB2 (human); compound 1.0 µM) was 120%, the residual activity (EPHB2 (human); compound 10.0 µM) was 109% and the residual activity (EPHB3 (human); compound 1.0 µM) was 96%. For the same compound, the residual activity (EPHB3 (human); compound 10.0 µM) was 112%, the residual activity (MAPK14 (human); compound 1.0 µM) was 102% and the residual activity (MAPK14 (human); compound 10.0 µM) was 83%. For the same compound, the residual activity (DYRK2 (human); compound 1.0 µM) was 107%, the residual activity (DYRK2 (human); compound 10.0 µM) was 98% and the residual activity (MELK (human); compound 1.0 µM) was 94%. The residual activity (MELK (human); compound 10.0 µM) was 98%, the residual activity (PIM1 (human); compound 1.0 µM) was 105% and the residual activity (PIM1 (human); compound 10.0 µM) was 106%. It also gave a residual activity (MAPK8 (human); compound 1.0 µM) of 85%, a residual activity (MAPK8 (human); compound 10.0 µM) of 87% and a residual activity (MINK1 (human); compound 1.0 µM) of 106%. The residual activity (MINK1 (human); compound 10.0 µM) was 108%, the residual activity (RIPK2 (human); compound 1.0 µM) was 86% and the residual activity (RIPK2 (human); compound 10.0 µM) was 87%. For the same compound, the residual activity (PRKACA (human); compound 1.0 µM) was 90%, the residual activity (PRKACA (human); compound 10.0 µM) was 97% and the residual activity (IKBKB (human); compound 1.0 µM) was 87%. For the same compound, the residual activity (IKBKB (human); compound 10.0 µM) was 88%, the residual activity (CSK (human); compound 1.0 µM) was 98% and the residual activity (CSK (human); compound 10.0 µM) was 87%. The residual activity (MAPKAPK5 (human); compound 1.0 µM) was 100%, the residual activity (MAPKAPK5 (human); compound 10.0 µM) was 95% and the residual activity (CSNK1D (human); compound 1.0 µM) was 97%. For the same compound, the residual activity (CSNK1D (human); compound 10.0 µM) was 102%, the residual activity (MAP2K2 (human); compound 1.0 µM) was 58% and the residual activity (MAP2K2 (human); compound 10.0 µM) was 35%. For the same compound, the residual activity (MAP3K11 (human); compound 1.0 µM) was 108%, the residual activity (MAP3K11 (human); compound 10.0 µM) was 98% and the residual activity (MKNK2 (human); compound 1.0 µM) was 90%. It also gave a residual activity (MKNK2 (human); compound 10.0 µM) of 93%, a residual activity (HIPK2 (human); compound 1.0 µM) of 122% and a residual activity (HIPK2 (human); compound 10.0 µM) of 106%. It also gave a residual activity (BRSK1 (human); compound 1.0 µM) of 95%, a residual activity (BRSK1 (human); compound 10.0 µM) of 93% and a residual activity (CAMKK2 (human); compound 1.0 µM) of 97%. For the same compound, the residual activity (CAMKK2 (human); compound 10.0 µM) was 108%, the residual activity (MAPKAPK2 (human); compound 1.0 µM) was 108% and the residual activity (MAPKAPK2 (human); compound 10.0 µM) was 93%. For the same compound, the residual activity (YES1 (human); compound 1.0 µM) was 118%, the residual activity (YES1 (human); compound 10.0 µM) was 109% and the residual activity (AURKB (human); compound 1.0 µM) was 93%. For the same compound, the residual activity (AURKB (human); compound 10.0 µM) was 87%, the residual activity (PAK4 (human); compound 1.0 µM) was 101% and the residual activity (PAK4 (human); compound 10.0 µM) was 89%. For the same compound, the residual activity (BTK (human); compound 1.0 µM) was 119%, the residual activity (BTK (human); compound 10.0 µM) was 115% and the residual activity (MAPK9 (human); compound 1.0 µM) was 85%. For the same compound, the residual activity (MAPK9 (human); compound 10.0 µM) was 86%, the residual activity (IKBKE (human); compound 1.0 µM) was 104% and the residual activity (IKBKE (human); compound 10.0 µM) was 99%. The residual activity (MAPK12 (human); compound 1.0 µM) was 109% and the residual activity (MAPK12 (human); compound 10.0 µM) was 96%.
